According to patent US20050080045A1, “Composition comprising dextrinsulfate for the treatment of sexual transmitted diseases (std)” (priority 2001, published 2005):

What was measured:
HSV-1 = test: HSV plaque reduction assay in Vero cells (HSV-1); format: cell-based, Herpes Simplex Virus; conditions: mean of two determinations
Method: (§1) Dextrin sulphate was added to the cell culture and then removed following an incubation period. Virus was then added as it is thought that dextrin sulphate attaches to cell receptors, thereby blocking subsequent viral entry. Following incubation with virus, dextrin sulphate in carboxylmethyl cellulose was added. This medium was used to form a gel layer to prevent any intracellular virus (that has bypassed the dextrin sulphate-cell receptor blocking interaction) from further infecting other cells.
(§2) • (i) Seed 24 well cell culture plates with Vero cells (2×10^5 cells/ml/well). Prepare one plate per virus plus 2 plates for controls. • (ii) Grow cells to confluency overnight at 37° in 5% CO2. • (iii) Dilute virus as calculated to give about 100 plaques per well, a minimum volume of 5 ml per plate.
Plate Layout. Dextrin sulphate (D.S.) concentrations are in mg per ml.
• (iv) Pipette cell medium off all wells except the cell control wells. • (v) Inoculate the appropriate well with 1 ml Dextrin sulphate made up in Minimum Essential Medium as per above layout. • (vi) Incubate the plate at 37° C. in CO2 incubator for 1 hour. • (vii) Remove Dextrin sulphate. • (viii) Inoculate 200 μl of virus dilution per well. • (ix) Incubate the plate at 37° C. in CO2 incubator for 1 hour. • (x) Add 1 ml Dextrin sulphate in CMC to appropriate wells, incubate the plates at 37° C. in CO2 incubator for 60 hours. • (xi) Fix with 10% formalin in PBS by topping up the wells, leave for a minimum of 1 hour. • (xii) Decant formalin, rinse plate in water, stain with crystal violet for 5-10 mins, rinse and drain. Leave plates to dry before counting.
(xiii) Count plaques, calculate IC50 by Grafit.

[1] = test system: Chlamydia trachomatis Sa2f strain; test: Chlamydia trachomatis cell culture assay (inclusion bodies in McCoy cell monolayers); format: cell-based
Method: McCoy cell monolayers were prepared on coverslips in plastic Bijoux. Cells were infected with Chlamydia trachomatis either alone or in the presence of dextrin sulphate. The Sa2f strain of C. trachomatis was used. Sa2f, which causes lymphogranuloma venereum, is similar to C. trachomatis. It is a heavily passaged laboratory strain which can infect McCoy cells without the need for spinning (for most strains of C. trachomatis, it is necessary to spin the cells onto the monolayers in the presence of cyclohexamide in order for infection of the monolayers to occur).
After incubation, coverslips were fixed and stained for C. trachomatis. The number of inclusion bodies per coverslip was estimated by fluorescence microscopy.

HSV-2 = test: HSV plaque reduction assay in Vero cells (HSV-2); format: cell-based, Herpes Simplex Virus; conditions: mean of two determinations
Method: as §1, §2
Plate Layout. Dextrin sulphate (D.S.) concentrations are in mg per ml. […]

dextrin sulphate
IC50 (HSV-1; DM-21, Laboratory HSB-1 ACV resistant): 910 µg/mL | IC50 (HSV-1; HSV-1 ACV resistant): 2770 µg/mL | IC50 (HSV-1; HSV-1 ACV sensitive): 1130 µg/mL | IC50 (HSV-1; SC-16, Laboratory HSV-1 ACV sensitive): 330 µg/mL | Inhibition (Expt. 2.1.1) ([1]; Sa2f preincubated with dextrin sulphate before infecting the cell line): inhibition by dextrin | Inhibition (Expt. 2.1.2) ([1]; dextrin sulphate preincubated with the cell line before infection with Sa2f): inhibition by dextrin | course of inhibitory activity (Expt. 2.3.1) ([1]; larger infecting doses of Sa2f (400 inclusion bodies in 30 fields)): plateaued off | course of inhibitory activity (Expt. 2.3.2) ([1]; lower infecting doses (40 inclusion bodies in 30 fields)): plateaued off | inhibition (Expt. 2.3.2) ([1]; lower infecting doses (40 inclusion bodies in 30 fields), dextrin sulphate 1000 μg/ml): b) 80-90% inhibition | Inhibition (Expt. 2.3) ([1]; use of different infecting doses of Sa2f): inhibition by dextrin | IC50 (HSV-2; HSV-2 ACV resistant): 4 µg/mL | IC50 (HSV-2; HSV-2 ACV sensitive): 110 µg/mL
